# From US20050148605A1, “Amide derivatives as ABL modulators” (Ambit Biosciences Corporation, priority 2003, published 2005)
# Assays:
# [1] = molecular target: T1, ABL1(E274K) (Homo sapiens, UniProt P00519, E255K); test: Binding constant (Kd) measurement, phage-displayed kinase competition binding assay: ABL1(E274K); settings: competition with immobilized ATP site ligand
# T1 construct: made in house; host or cells: T7 bacteriophage display
# Text: (§1) Binding Constant (Kd) Measurements for Small-Molecule-Kinase Interactions
# (§2) The term “ND” represents non-determined values.
# [2] = molecular target: T2, ABL1(DKIN) (Homo sapiens, UniProt P00519); test: Binding constant (Kd) measurement, phage-displayed kinase competition binding assay: ABL1(DKIN); settings: competition with immobilized ATP site ligand
# T2 construct: column label 'AB L1(DKIN)'; fused on or other part: Fused to a T7 bacteriophage particle (phage display)
# T2 sequence (P00519 242-493 limits assumed): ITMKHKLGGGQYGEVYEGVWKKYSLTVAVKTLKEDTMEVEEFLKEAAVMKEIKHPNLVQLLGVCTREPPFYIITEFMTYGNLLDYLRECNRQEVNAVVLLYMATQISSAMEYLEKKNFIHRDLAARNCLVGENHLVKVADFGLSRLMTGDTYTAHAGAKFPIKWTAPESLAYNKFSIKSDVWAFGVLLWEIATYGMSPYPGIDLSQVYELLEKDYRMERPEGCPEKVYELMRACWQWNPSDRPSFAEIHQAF
# Text: as §1, §2
# T1 sequence (P00519 1-1149 isoform P00519-2 E274K): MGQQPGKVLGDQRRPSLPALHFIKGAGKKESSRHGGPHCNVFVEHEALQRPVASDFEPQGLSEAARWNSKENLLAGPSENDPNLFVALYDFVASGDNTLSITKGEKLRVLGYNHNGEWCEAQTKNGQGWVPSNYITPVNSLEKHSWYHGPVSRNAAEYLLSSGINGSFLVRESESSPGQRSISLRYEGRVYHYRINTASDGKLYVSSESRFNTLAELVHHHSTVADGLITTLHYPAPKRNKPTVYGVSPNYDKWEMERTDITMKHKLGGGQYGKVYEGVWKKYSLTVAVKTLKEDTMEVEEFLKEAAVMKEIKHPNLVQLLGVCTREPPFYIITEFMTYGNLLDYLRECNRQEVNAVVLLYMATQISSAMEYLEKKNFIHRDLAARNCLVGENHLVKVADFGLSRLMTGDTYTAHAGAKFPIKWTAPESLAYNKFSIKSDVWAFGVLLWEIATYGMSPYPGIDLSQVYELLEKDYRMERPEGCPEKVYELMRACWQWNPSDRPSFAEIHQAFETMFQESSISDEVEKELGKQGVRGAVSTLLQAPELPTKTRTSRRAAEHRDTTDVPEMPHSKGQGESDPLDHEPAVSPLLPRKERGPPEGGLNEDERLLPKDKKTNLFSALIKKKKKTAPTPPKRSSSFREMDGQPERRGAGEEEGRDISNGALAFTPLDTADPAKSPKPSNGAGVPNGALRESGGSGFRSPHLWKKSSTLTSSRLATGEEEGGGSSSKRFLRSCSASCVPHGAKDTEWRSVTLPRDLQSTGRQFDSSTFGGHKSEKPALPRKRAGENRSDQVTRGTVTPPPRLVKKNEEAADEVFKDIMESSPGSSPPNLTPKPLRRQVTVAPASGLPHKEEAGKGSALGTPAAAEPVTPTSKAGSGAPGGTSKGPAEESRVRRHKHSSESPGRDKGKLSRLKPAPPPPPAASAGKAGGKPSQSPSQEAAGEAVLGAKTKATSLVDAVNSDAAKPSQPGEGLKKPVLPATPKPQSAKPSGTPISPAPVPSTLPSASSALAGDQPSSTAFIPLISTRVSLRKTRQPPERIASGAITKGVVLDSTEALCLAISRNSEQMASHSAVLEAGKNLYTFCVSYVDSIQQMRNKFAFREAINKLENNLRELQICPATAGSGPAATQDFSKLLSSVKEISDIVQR
Kd [1] [µM],Kd [2] [µM],Structure (SMILES)
> 10,,O=C(Cc1ccc(OCc2ccccc2)cc1)Nc1nc2cc(Cl)ccc2o1 [Compound B15]
,> 10,O=C(Cc1ccc(F)cc1)Nc1cc(C2CC2)nn1-c1ccccc1 [Compound E7]
